Experimental data: ChEMBL document CHEMBL1138025, “Nocathiacin I analogues: synthesis, in vitro and in vivo biological activity of novel semi-synthetic thiazolyl peptide antibiotics” (Bioorg Med Chem Lett, 2004)
≈ marks a conversion by molar mass, not a printed value.

Key:
[1] = Equilibrium water solubility at pH 2.8; type: physicochemical
Enterococcus faecalis = test: In vitro antibacterial activity against methicillin-sensitive Enterococcus faecalis A20688; type: functional
Streptococcus pneumoniae = test: In vitro antibacterial activity against penicillin-resistant Streptococcus pneumoniae A28272; type: functional
Mus musculus [2] = test: In vivo efficacy (PD50) against lethal Staphylococcus aureus systemic infection model in mice; type: functional; details: read-out: PD50
Staphylococcus aureus = test: In vitro antibacterial activity against methicillin-sensitive Staphylococcus aureus A15090; type: functional
[3] = Equilibrium water solubility at pH 3.2; type: physicochemical
[4] = Equilibrium water solubility at pH 3.3; type: physicochemical
[5] = Equilibrium water solubility at pH 2.6; type: physicochemical
[6] = Equilibrium water solubility at pH 3.8; type: physicochemical
[7] = Equilibrium water solubility at pH 3.9; type: physicochemical
[8] = Equilibrium water solubility at pH 2.7; type: physicochemical
[9] = Equilibrium water solubility at pH 4.0; type: physicochemical
[10] = target: Neuronal acetylcholine receptor; alpha4/beta2 (Rattus norvegicus, UniProt P09483+P12390); test: Inhibition of [3H]- cytisine binding to Nicotinic acetylcholine receptor alpha4-beta2 of rat cortical membranes; type: cell membranes, Membrane
Neuronal acetylcholine receptor; alpha4/beta2, sequence (P09483 whole entry): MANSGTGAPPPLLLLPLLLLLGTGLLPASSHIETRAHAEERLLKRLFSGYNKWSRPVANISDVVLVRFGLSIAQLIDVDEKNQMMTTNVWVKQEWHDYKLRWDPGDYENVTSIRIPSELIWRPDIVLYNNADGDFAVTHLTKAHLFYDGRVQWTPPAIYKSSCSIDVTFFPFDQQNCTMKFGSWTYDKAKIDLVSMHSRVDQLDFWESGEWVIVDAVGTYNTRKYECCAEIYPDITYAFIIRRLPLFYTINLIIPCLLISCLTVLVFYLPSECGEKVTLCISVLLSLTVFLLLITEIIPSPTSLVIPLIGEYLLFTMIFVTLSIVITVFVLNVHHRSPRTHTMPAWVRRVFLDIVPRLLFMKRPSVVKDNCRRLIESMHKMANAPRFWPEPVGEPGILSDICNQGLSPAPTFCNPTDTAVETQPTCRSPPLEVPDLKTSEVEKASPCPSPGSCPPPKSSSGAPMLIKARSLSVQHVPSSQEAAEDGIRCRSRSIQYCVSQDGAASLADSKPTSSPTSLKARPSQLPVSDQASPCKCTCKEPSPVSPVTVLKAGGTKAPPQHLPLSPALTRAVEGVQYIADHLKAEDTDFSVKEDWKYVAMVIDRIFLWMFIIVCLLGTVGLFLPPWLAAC
Neuronal acetylcholine receptor; alpha4/beta2, sequence (P12390 whole entry): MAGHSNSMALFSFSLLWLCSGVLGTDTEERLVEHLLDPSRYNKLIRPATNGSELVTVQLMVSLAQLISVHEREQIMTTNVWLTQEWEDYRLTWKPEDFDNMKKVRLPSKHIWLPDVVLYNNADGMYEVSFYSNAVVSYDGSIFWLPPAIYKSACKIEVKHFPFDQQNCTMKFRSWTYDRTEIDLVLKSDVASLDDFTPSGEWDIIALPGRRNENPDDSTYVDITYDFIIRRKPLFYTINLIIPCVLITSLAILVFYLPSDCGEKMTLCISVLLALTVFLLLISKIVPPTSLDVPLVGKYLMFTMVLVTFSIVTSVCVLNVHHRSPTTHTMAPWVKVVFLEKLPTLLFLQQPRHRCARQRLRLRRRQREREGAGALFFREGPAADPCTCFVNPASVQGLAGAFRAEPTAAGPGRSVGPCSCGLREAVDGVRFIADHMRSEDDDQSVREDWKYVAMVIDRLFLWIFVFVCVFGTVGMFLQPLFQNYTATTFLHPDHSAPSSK

Mus musculus [11] = organism: Mus musculus; test: Effective concentration showing antinociception activity was determined by tail flick test in mouse; type: functional, organism-based
[12] = Equilibrium water solubility at pH 3.5; type: physicochemical
[13] = Equilibrium water solubility at pH 2.9; type: physicochemical

## CO/C(C)=C1/NC(=O)[C@H]([C@@H](C)O)NC(=O)c2csc(n2)-c2cc(O)c(-c3nc(C(=O)NC(CN(C)CCC(=O)Nc4ccncc4)C(N)=O)cs3)nc2-c2csc(n2)[C@@H]2COC(=O)c3c4c5c(cccc5n3O)COC(=O)[C@@H](O[C@H]3C[C@](C)(O)[C@H](N(C)C)[C@H](C)O3)[C@@H](OC4)[C@H](NC(=O)c3csc1n3)c1nc(cs1)C(=O)N2 (stereo partly specified)
[1]
  solubility thermodynamic: > 3000 µg/mL
Enterococcus faecalis
  MIC: 0.5 µg/mL (≈ 0.309 µM)
Streptococcus pneumoniae
  MIC: 0.03 µg/mL (≈ 0.0186 µM)
Mus musculus [2]
  ED50: 8.7 mg/kg
Staphylococcus aureus
  MIC: 0.5 µg/mL (≈ 0.309 µM)

## CO/C(C)=C1/NC(=O)[C@H]([C@@H](C)O)NC(=O)c2csc(n2)-c2cc(O)c(-c3nc(C(=O)NC(CNCCOCCOCCOCCN)C(N)=O)cs3)nc2-c2csc(n2)[C@@H]2COC(=O)c3c4c5c(cccc5n3O)COC(=O)[C@@H](O[C@H]3C[C@](C)(O)[C@H](N(C)C)[C@H](C)O3)[C@@H](OC4)[C@H](NC(=O)c3csc1n3)c1nc(cs1)C(=O)N2 (stereo partly specified)
Enterococcus faecalis
  MIC: 1 µg/mL (≈ 0.614 µM)
Streptococcus pneumoniae
  MIC: 0.25 µg/mL (≈ 0.153 µM)
Mus musculus [2]
  ED50: > 10 mg/kg
Staphylococcus aureus
  MIC: 1 µg/mL (≈ 0.614 µM)
[3]
  solubility thermodynamic: > 2800 µg/mL

## CO/C(C)=C1/NC(=O)[C@H]([C@@H](C)O)NC(=O)c2csc(n2)-c2cc(O)c(-c3nc(C(=O)NC(CN(C)C)C(N)=O)cs3)nc2-c2csc(n2)[C@@H]2COC(=O)c3c4c5c(cccc5n3O)COC(=O)[C@@H](O[C@H]3C[C@](C)(O)[C@H](N(C)C)[C@H](C)O3)[C@@H](OC4)[C@H](NC(=O)c3csc1n3)c1nc(cs1)C(=O)N2 (stereo partly specified)
Enterococcus faecalis
  MIC: 0.12 µg/mL (≈ 0.0809 µM)
[4]
  solubility thermodynamic: > 10000 µg/mL
Streptococcus pneumoniae
  MIC: 0.03 µg/mL (≈ 0.0202 µM)
Mus musculus [2]
  ED50: < 0.62 mg/kg
Staphylococcus aureus
  MIC: 0.06 µg/mL (≈ 0.0405 µM)

## CO/C(C)=C1/NC(=O)[C@H]([C@@H](C)O)NC(=O)c2csc(n2)-c2cc(O)c(-c3nc(C(=O)NC(CNCCOCCOCCO)C(N)=O)cs3)nc2-c2csc(n2)[C@@H]2COC(=O)c3c4c5c(cccc5n3O)COC(=O)[C@@H](O[C@H]3C[C@](C)(O)[C@H](N(C)C)[C@H](C)O3)[C@@H](OC4)[C@H](NC(=O)c3csc1n3)c1nc(cs1)C(=O)N2 (stereo partly specified)
Enterococcus faecalis
  MIC: 0.5 µg/mL (≈ 0.315 µM)
[4]
  solubility thermodynamic: > 3100 µg/mL
Streptococcus pneumoniae
  MIC: 0.06 µg/mL (≈ 0.0378 µM)
Mus musculus [2]
  ED50: 4.6 mg/kg
Staphylococcus aureus
  MIC: 0.25 µg/mL (≈ 0.158 µM)

## CNCCNCC(NC(=O)c1csc(-c2nc3c(cc2O)-c2nc(cs2)C(=O)N[C@@H]([C@@H](C)O)C(=O)N/C(=C(\C)OC)c2nc(cs2)C(=O)N[C@@H]2c4nc(cs4)C(=O)N[C@@H](COC(=O)c4c5c6c(cccc6n4O)COC(=O)[C@@H](O[C@H]4C[C@](C)(O)[C@H](N(C)C)[C@H](C)O4)[C@H]2OC5)c2nc-3cs2)n1)C(N)=O (stereo partly specified)
Enterococcus faecalis
  MIC: 0.5 µg/mL (≈ 0.331 µM)
Streptococcus pneumoniae
  MIC: 0.03 µg/mL (≈ 0.0198 µM)
[5]
  solubility thermodynamic: > 2500 µg/mL
Staphylococcus aureus
  MIC: 0.25 µg/mL (≈ 0.165 µM)

## CO/C(C)=C1/NC(=O)C([C@@H](C)O)NC(=O)c2csc(n2)-c2cc(O)c(-c3nc(C(=O)NC(CNCCCn4ccnc4)C(N)=O)cs3)nc2-c2csc(n2)[C@@H]2COC(=O)c3c4c5c(cccc5n3O)COC(=O)[C@@H](O[C@H]3C[C@](C)(O)[C@H](N(C)C)[C@H](C)O3)[C@@H](OC4)[C@H](NC(=O)c3csc1n3)c1nc(cs1)C(=O)N2 (stereo partly specified)
Enterococcus faecalis
  MIC: 1 µg/mL (≈ 0.64 µM)
Streptococcus pneumoniae
  MIC: 0.06 µg/mL (≈ 0.0384 µM)
Mus musculus [2]
  ED50: 10 mg/kg
Staphylococcus aureus
  MIC: 0.5 µg/mL (≈ 0.32 µM)
[3]
  solubility thermodynamic: > 10000 µg/mL

## CO/C(C)=C1/NC(=O)[C@H]([C@@H](C)O)NC(=O)c2csc(n2)-c2cc(O)c(-c3nc(C(=O)NC(CNCCN4CCN(C)CC4)C(N)=O)cs3)nc2-c2csc(n2)[C@@H]2COC(=O)c3c4c5c(cccc5n3O)COC(=O)[C@@H](O[C@H]3C[C@](C)(O)[C@H](N(C)C)[C@H](C)O3)[C@@H](OC4)[C@H](NC(=O)c3csc1n3)c1nc(cs1)C(=O)N2 (stereo partly specified)
[1]
  solubility thermodynamic: > 2900 µg/mL
Enterococcus faecalis
  MIC: 4 µg/mL (≈ 2.53 µM)
Streptococcus pneumoniae
  MIC: 0.01 µg/mL (≈ 0.00633 µM)
Mus musculus [2]
  ED50: > 10 mg/kg
Staphylococcus aureus
  MIC: 0.25 µg/mL (≈ 0.158 µM)

## CO/C(C)=C1/NC(=O)[C@H]([C@@H](C)O)NC(=O)c2csc(n2)-c2cc(O)c(-c3nc(C(=O)NC(CN4CCC(O)CC4)C(N)=O)cs3)nc2-c2csc(n2)[C@@H]2COC(=O)c3c4c5c(cccc5n3O)COC(=O)[C@@H](O[C@H]3C[C@](C)(O)[C@H](N(C)C)[C@H](C)O3)[C@@H](OC4)[C@H](NC(=O)c3csc1n3)c1nc(cs1)C(=O)N2 (stereo partly specified)
Enterococcus faecalis
  MIC: 0.25 µg/mL (≈ 0.162 µM)
[6]
  solubility thermodynamic: > 2700 µg/mL
Streptococcus pneumoniae
  MIC: 0.007 µg/mL (≈ 0.00455 µM)
Mus musculus [2]
  ED50: 2.1 mg/kg
Staphylococcus aureus
  MIC: 0.06 µg/mL (≈ 0.039 µM)

## CO/C(C)=C1/NC(=O)[C@H]([C@@H](C)O)NC(=O)c2csc(n2)-c2cc(O)c(-c3nc(C(=O)NC(CN(C)CCCn4ccnc4)C(N)=O)cs3)nc2-c2csc(n2)[C@@H]2COC(=O)c3c4c5c(cccc5n3O)COC(=O)[C@@H](O[C@H]3C[C@](C)(O)[C@H](N(C)C)[C@H](C)O3)[C@@H](OC4)[C@H](NC(=O)c3csc1n3)c1nc(cs1)C(=O)N2 (stereo partly specified)
[7]
  solubility thermodynamic: > 10600 µg/mL
Enterococcus faecalis
  MIC: 0.12 µg/mL (≈ 0.0761 µM)
Streptococcus pneumoniae
  MIC: 0.01 µg/mL (≈ 0.00634 µM)
Mus musculus [2]
  ED50: 5 mg/kg
Staphylococcus aureus
  MIC: 0.12 µg/mL (≈ 0.0761 µM)

## CO/C(C)=C1/NC(=O)[C@H]([C@@H](C)O)NC(=O)c2csc(n2)-c2cc(O)c(-c3nc(C(=O)NC(CN4CCN(C(C)=O)CC4)C(N)=O)cs3)nc2-c2csc(n2)[C@@H]2COC(=O)c3c4c5c(cccc5n3O)COC(=O)[C@@H](O[C@H]3C[C@](C)(O)[C@H](N(C)C)[C@H](C)O3)[C@@H](OC4)[C@H](NC(=O)c3csc1n3)c1nc(cs1)C(=O)N2 (stereo partly specified)
Enterococcus faecalis
  MIC: 2 µg/mL (≈ 1.28 µM)
Streptococcus pneumoniae
  MIC: 0.03 µg/mL (≈ 0.0192 µM)
[8]
  solubility thermodynamic: > 2400 µg/mL
Mus musculus [2]
  ED50: 5 mg/kg
Staphylococcus aureus
  MIC: 0.5 µg/mL (≈ 0.319 µM)

## C=C(NC(=O)c1csc(-c2nc3c(cc2O)-c2nc(cs2)C(=O)N[C@@H]([C@@H](C)O)C(=O)N/C(=C(\C)OC)c2nc(cs2)C(=O)N[C@@H]2c4nc(cs4)C(=O)N[C@@H](COC(=O)c4c5c6c(cccc6n4O)COC(=O)C(O[C@H]4C[C@](C)(O)[C@H](N(C)C)[C@H](C)O4)[C@H]2OC5)c2nc-3cs2)n1)C(N)=O (stereo partly specified)
Enterococcus faecalis
  MIC: 0.03 µg/mL (≈ 0.0209 µM)
[9]
  solubility thermodynamic: 340 µg/mL (≈ 237 µM)
Streptococcus pneumoniae
  MIC: 0.001 µg/mL (≈ 0.000696 µM)
Mus musculus [2]
  ED50: 0.8 mg/kg
Staphylococcus aureus
  MIC: 0.007 µg/mL (≈ 0.00487 µM)

## Clc1ccc(C2CC3CCC2CN3)cn1 (stereo unspecified)
[10]
  Ki: 0.34 nM
Mus musculus [11]
  EC50: 1.4 mg/kg

## COCCOCCOCCOCCN1CCN(CC(NC(=O)c2csc(-c3nc4c(cc3O)-c3nc(cs3)C(=O)N[C@@H]([C@@H](C)O)C(=O)N/C(=C(\C)OC)c3nc(cs3)C(=O)N[C@@H]3c5nc(cs5)C(=O)N[C@@H](COC(=O)c5c6c7c(cccc7n5O)COC(=O)[C@@H](O[C@H]5C[C@](C)(O)[C@H](N(C)C)[C@H](C)O5)[C@H]3OC6)c3nc-4cs3)n2)C(N)=O)CC1 (stereo partly specified)
Enterococcus faecalis
  MIC: 4 µg/mL (≈ 2.33 µM)
Streptococcus pneumoniae
  MIC: 0.25 µg/mL (≈ 0.146 µM)
[12]
  solubility thermodynamic: > 1500 µg/mL
Mus musculus [2]
  ED50: 1.5 mg/kg
Staphylococcus aureus
  MIC: 0.5 µg/mL (≈ 0.292 µM)

## CO/C(C)=C1/NC(=O)[C@H]([C@@H](C)O)NC(=O)c2csc(n2)-c2cc(O)c(-c3nc(C(=O)NC(CN4CCN(CC(=O)O)CC4)C(N)=O)cs3)nc2-c2csc(n2)[C@@H]2COC(=O)c3c4c5c(cccc5n3O)COC(=O)[C@@H](O[C@H]3C[C@](C)(O)[C@H](N(C)C)[C@H](C)O3)[C@@H](OC4)[C@H](NC(=O)c3csc1n3)c1nc(cs1)C(=O)N2 (stereo partly specified)
Enterococcus faecalis
  MIC: 1 µg/mL (≈ 0.632 µM)
[4]
  solubility thermodynamic: > 2600 µg/mL
Streptococcus pneumoniae
  MIC: 0.03 µg/mL (≈ 0.019 µM)
Mus musculus [2]
  ED50: > 10 mg/kg
Staphylococcus aureus
  MIC: 1 µg/mL (≈ 0.632 µM)

## CNCC(NC(=O)c1csc(-c2nc3c(cc2O)-c2nc(cs2)C(=O)N[C@@H]([C@@H](C)O)C(=O)N/C(=C(\C)OC)c2nc(cs2)C(=O)N[C@@H]2c4nc(cs4)C(=O)N[C@@H](COC(=O)c4c5c6c(cccc6n4O)COC(=O)[C@@H](O[C@H]4C[C@](C)(O)[C@H](N(C)C)[C@H](C)O4)[C@H]2OC5)c2nc-3cs2)n1)C(N)=O (stereo partly specified)
Enterococcus faecalis
  MIC: 8 µg/mL (≈ 5.45 µM)
Streptococcus pneumoniae
  MIC: 0.001 µg/mL (≈ 0.000681 µM)
[13]
  solubility thermodynamic: > 3500 µg/mL
Mus musculus [2]
  ED50: 1.6 mg/kg
Staphylococcus aureus
  MIC: 2 µg/mL (≈ 1.36 µM)
